≈ marks a conversion by molar mass, not a printed value. Read-outs that look alike come from different tables or passages of the source.
Test system: R. oryzae
Assay: Deferasirox susceptibility testing (MIC/MFC), R. oryzae isolates
Assay type: cell-based, Rhizopus oryzae
Conditions: Rhizopus arrhizus; for MIC90: R. oryzae MIC90/MFC90
Procedure: Minimum inhibitory concentration (MIC) and minimum fungicidal concentration (MFC) were determined for deferasirox by the method of Espinel-Ingroff using R. oryzae spores starved for iron (Espinel-Ingroff, (2001), supra). Cidality was defined as a <4-fold difference between MIC and MFC.
We next determined the deferasirox susceptibilities of multiple clinical isolates of Mucorales (Table 3). The MIC9OS of deferasirox against Mucor, non-oryzae Rhizopus spp., and R. oryzae were 3.12 to 6.25 μg/ml. MFCs were similar to MICs, and deferasirox was cidal for 28/29 (97%) of isolates. Of note, slight growth was seen within the first twelve hours even at extremely high concentrations of deferasirox. […] Furthermore, the MICs and MFCs of deferasirox against these isolates were well below clinically achievable peak (˜38 μg/ml) and trough serum levels (˜17 μg/ml) of the drug at steady state when administered at the FDA-approved starting dose (20 mg/kg/d).

[1] = NRRL6059, 24 h, R. oryzae type I NRRL 6059, 24 h
[2] = NRRL6059, 48 h, R. oryzae type I NRRL 6059, 48 h
[3] = NRRL21409, 48 h, R. oryzae type I NRRL21409, 48 h

With `O=C(O)c1ccc(-n2nc(-c3ccccc3O)nc2-c2ccccc2O)cc1` [Deferasirox, 4-[3,5-Bis(2-hydroxyphenyl)-1H-1,2,4-triazol-1-yl]-benzoic acid] the MIC (48 h, R. oryzae 99-892, 48 h, read-out: MIC) was 1.56 µg/mL (≈ 4.18 µM), the MFC (48 h, R. oryzae 729-02, 48 h, read-out: MFC) was 6.25 µg/mL (≈ 16.7 µM) and the MIC (48 h, R. oryzae 729-02, 48 h, read-out: MIC) was 6.25 µg/mL (≈ 16.7 µM). The MFC (48 h, R. oryzae HUMC 02, 48 h, read-out: MFC) was 1.56 µg/mL (≈ 4.18 µM), the MIC (48 h, R. oryzae HUMC 02, 48 h, read-out: MIC) was 1.56 µg/mL (≈ 4.18 µM) and the MFC (48 h, R. oryzae pyr17 pyrG−/−, 48 h, read-out: MFC) was 0.78 µg/mL (≈ 2.09 µM). It also gave an MIC (48 h, R. oryzae pyr17 pyrG−/−, 48 h, read-out: MIC) of 0.78 µg/mL (≈ 2.09 µM), an MFC (48 h, R. orzae type II 10206, 48 h, read-out: MFC) of 3.12 µg/mL (≈ 8.36 µM) and an MIC (48 h, R. orzae type II 10206, 48 h, read-out: MIC) of 3.12 µg/mL (≈ 8.36 µM). For the same compound, the MFC [1] was 6.25 µg/mL (≈ 16.7 µM), the MIC [1] was 6.15 µg/mL (≈ 16.5 µM) and the MFC [2] was 6.25 µg/mL (≈ 16.7 µM). The MIC [2] was 1.56 µg/mL (≈ 4.18 µM), the MFC (NRRL10206, 24 h, R. oryzae type I NRRL 10206, 24 h, read-out: MFC) was 3.12 µg/mL (≈ 8.36 µM) and the MIC (NRRL10206, 24 h, R. oryzae type I NRRL 10206, 24 h, read-out: MIC) was 3.12 µg/mL (≈ 8.36 µM). For the same compound, the MFC (NRRL10206, 48 h, R. oryzae type I NRRL 10206, 48 h, read-out: MFC) was 3.12 µg/mL (≈ 8.36 µM), the MIC (NRRL10206, 48 h, R. oryzae type I NRRL 10206, 48 h, read-out: MIC) was 3.12 µg/mL (≈ 8.36 µM) and the MFC (NRRL11823, 24 h, R. oryzae type I NRRL11823, 24 h, read-out: MFC) was 3.12 µg/mL (≈ 8.36 µM). For the same compound, the MIC (NRRL11823, 24 h, R. oryzae type I NRRL11823, 24 h, read-out: MIC) was 3.12 µg/mL (≈ 8.36 µM), the MFC (NRRL11823, 48 h, R. oryzae type I NRRL11823, 48 h, read-out: MFC) was 6.25 µg/mL (≈ 16.7 µM) and the MIC (NRRL11823, 48 h, R. oryzae type I NRRL11823, 48 h, read-out: MIC) was 6.25 µg/mL (≈ 16.7 µM). It also gave an MFC (NRRL13142, 24 h, R. oryzae type I NRRL13142, 24 h, read-out: MFC) of 6.25 µg/mL (≈ 16.7 µM), an MIC (NRRL13142, 24 h, R. oryzae type I NRRL13142, 24 h, read-out: MIC) of 6.25 µg/mL (≈ 16.7 µM) and an MFC (NRRL13142, 48 h, R. oryzae type I NRRL13142, 48 h, read-out: MFC) of 3.12 µg/mL (≈ 8.36 µM). For the same compound, the MIC (NRRL13142, 48 h, R. oryzae type I NRRL13142, 48 h, read-out: MIC) was 3.12 µg/mL (≈ 8.36 µM), the MFC (NRRL13440, 24 h, R. oryzae type 1 NRRL13440, 24 h, read-out: MFC) was 12.5 µg/mL (≈ 33.5 µM) and the MIC (NRRL13440, 24 h, R. oryzae type 1 NRRL13440, 24 h, read-out: MIC) was 1.56 µg/mL (≈ 4.18 µM). For the same compound, the MFC (NRRL13440, 48 h, R. oryzae type 1 NRRL13440, 48 h, read-out: MFC) was 12.5 µg/mL (≈ 33.5 µM), the MIC (NRRL13440, 48 h, R. oryzae type 1 NRRL13440, 48 h, read-out: MIC) was 1.56 µg/mL (≈ 4.18 µM) and the MFC (NRRL13533, 24 h, R. oryzae type I NRRL13533, 24 h, read-out: MFC) was 6.25 µg/mL (≈ 16.7 µM). The MIC (NRRL13533, 24 h, R. oryzae type I NRRL13533, 24 h, read-out: MIC) was 1.56 µg/mL (≈ 4.18 µM), the MFC (NRRL13533, 48 h, R. oryzae type I NRRL13533, 48 h, read-out: MFC) was 6.25 µg/mL (≈ 16.7 µM) and the MIC (NRRL13533, 48 h, R. oryzae type I NRRL13533, 48 h, read-out: MIC) was 1.56 µg/mL (≈ 4.18 µM). It also gave an MFC (NRRL18148, 24 h, R. oryzae type II NRRL 18148, 24 h, read-out: MFC) of 0.78 µg/mL (≈ 2.09 µM), an MIC (NRRL18148, 24 h, R. oryzae type II NRRL 18148, 24 h, read-out: MIC) of 0.78 µg/mL (≈ 2.09 µM) and an MFC (NRRL18148, 48 h, R. oryzae type II NRRL 18148, 48 h, read-out: MFC) of 0.78 µg/mL (≈ 2.09 µM). The MIC (NRRL18148, 48 h, R. oryzae type II NRRL 18148, 48 h, read-out: MIC) was 0.78 µg/mL (≈ 2.09 µM), the MFC (NRRL21251, 24 h, R. oryzae type I NRRL 21251, 24 h, read-out: MFC) was 6.25 µg/mL (≈ 16.7 µM) and the MIC (NRRL21251, 24 h, R. oryzae type I NRRL 21251, 24 h, read-out: MIC) was 3.12 µg/mL (≈ 8.36 µM). For the same compound, the MFC (NRRL21251, 48 h, R. oryzae type I NRRL 21251, 48 h, read-out: MFC) was 6.25 µg/mL (≈ 16.7 µM), the MIC (NRRL21251, 48 h, R. oryzae type I NRRL 21251, 48 h, read-out: MIC) was 6.25 µg/mL (≈ 16.7 µM) and the MFC (NRRL21396, 24 h, R. oryzae type I NRRL21396, 24 h, read-out: MFC) was 12.5 µg/mL (≈ 33.5 µM). For the same compound, the MIC (NRRL21396, 24 h, R. oryzae type I NRRL21396, 24 h, read-out: MIC) was 12.5 µg/mL (≈ 33.5 µM), the MFC (NRRL21396, 48 h, R. oryzae type I NRRL21396, 48 h, read-out: MFC) was 6.25 µg/mL (≈ 16.7 µM) and the MIC (NRRL21396, 48 h, R. oryzae type I NRRL21396, 48 h, read-out: MIC) was 1.56 µg/mL (≈ 4.18 µM). It also gave an MFC [3] of 1.56 µg/mL (≈ 4.18 µM), an MIC [3] of 1.56 µg/mL (≈ 4.18 µM) and an MFC (NRRL21446, 24 h, R. oryzae type II NRRL 21446, 24 h, read-out: MFC) of 12.5 µg/mL (≈ 33.5 µM). For the same compound, the MIC (NRRL21446, 24 h, R. oryzae type II NRRL 21446, 24 h, read-out: MIC) was 6.25 µg/mL (≈ 16.7 µM), the MFC (NRRL21446, 48 h, R. oryzae type II NRRL 21446, 48 h, read-out: MFC) was 6.25 µg/mL (≈ 16.7 µM) and the MIC (NRRL21446, 48 h, R. oryzae type II NRRL 21446, 48 h, read-out: MIC) was 6.25 µg/mL (≈ 16.7 µM). The MFC (NRRL21447, 24 h, R. oryzae type II NRRL 21447, 24 h, read-out: MFC) was 12.5 µg/mL (≈ 33.5 µM), the MIC (NRRL21447, 24 h, R. oryzae type II NRRL 21447, 24 h, read-out: MIC) was 6.25 µg/mL (≈ 16.7 µM) and the MFC (NRRL21447, 48 h, R. oryzae type II NRRL 21447, 48 h, read-out: MFC) was 6.25 µg/mL (≈ 16.7 µM). The MIC (NRRL21447, 48 h, R. oryzae type II NRRL 21447, 48 h, read-out: MIC) was 6.25 µg/mL (≈ 16.7 µM), the MFC (NRRL21477, 24 h, R. oryzae type II NRRL 21477, 24 h, read-out: MFC) was 1.56 µg/mL (≈ 4.18 µM) and the MIC (NRRL21477, 24 h, R. oryzae type II NRRL 21477, 24 h, read-out: MIC) was 1.56 µg/mL (≈ 4.18 µM). The MFC (NRRL21477, 48 h, R. oryzae type II NRRL 21477, 48 h, read-out: MFC) was 1.56 µg/mL (≈ 4.18 µM), the MIC (NRRL21477, 48 h, R. oryzae type II NRRL 21477, 48 h, read-out: MIC) was 1.56 µg/mL (≈ 4.18 µM) and the MFC (NRRL21628, 24 h, R. oryzae type II NRRL 21628, 24 h, read-out: MFC) was 0.78 µg/mL (≈ 2.09 µM). The MIC (NRRL21628, 24 h, R. oryzae type II NRRL 21628, 24 h, read-out: MIC) was 0.78 µg/mL (≈ 2.09 µM), the MFC (NRRL21628, 48 h, R. oryzae type II NRRL 21628, 48 h, read-out: MFC) was 0.78 µg/mL (≈ 2.09 µM) and the MIC (NRRL21628, 48 h, R. oryzae type II NRRL 21628, 48 h, read-out: MIC) was 0.78 µg/mL (≈ 2.09 µM). It also gave an MFC (NRRL21789, 24 h, R. oryzae type II NRRL 21789, 24 h, read-out: MFC) of 0.39 µg/mL (≈ 1.04 µM), an MIC (NRRL21789, 24 h, R. oryzae type II NRRL 21789, 24 h, read-out: MIC) of 0.39 µg/mL (≈ 1.04 µM) and an MFC (NRRL21789, 48 h, R. oryzae type II NRRL 21789, 48 h, read-out: MFC) of 0.39 µg/mL (≈ 1.04 µM). For the same compound, the MIC (NRRL21789, 48 h, R. oryzae type II NRRL 21789, 48 h, read-out: MIC) was 0.39 µg/mL (≈ 1.04 µM), the MIC90 (24 h) was 12.5 µg/mL (≈ 33.5 µM) and the MIC90 (48 h) was 6.25 µg/mL (≈ 16.7 µM).

Source: patent US20100129434A1, “COMPOSITIONS AND METHODS FOR THE TREATMENT OF MUCORMYCOSIS AND OTHER FUNGAL DISEASES” (priority 2006, published 2010)
